In brackets after ≈: the same amount, converted by molar mass. Entries after “also recorded” stand apart in the source; their conditions may differ.
Columns and labels:
Type in all cases: cell-based
[1] = system: Neutrophils purified from human peripheral blood; experiment: Human Neutrophil Transwell Migration Assay; conditions: 37° C., 45 minutes, % of the maximum migration possible
Description: Neutrophils were purified from human peripheral blood utilizing PolymorphPrep. Red blood cells were lysed with a lysis buffer and the cells were washed, counted and resuspended in assay buffer. Neutrophils (approximately 50,000 to 100,000 in number) were placed over 5-micon pore sized transwell plates in 24-well format with test compounds in the bottom chamber of each well. A negative control of media alone in the bottom chamber was set up in triplicate. A positive control where the neutrophils were added directly to the bottom well was set up in triplicate.
The plates were incubated at 37° C. for 45 minutes to allow for migration. After this time, migration was confirmed visually and then an aliquot (⅙^th of total cells) from each well was taken for ATP detection via luminescence with ATPlite (PerkinElmer) to quantify the number of migrated cells. The averaged reading for random migration detected in the negative control was subtracted from all readings to obtain the corrected migration number. These numbers were then divided by the averaged reading from the positive control to get the % Neutrophil Migration of the maximum migration possible.

[2] = system: C. albicans ATCC 90028; conditions: ATCC 90028, 24 h
Experimental: (§1) MIC and MEC assays were run as described in Example 31 with the following exceptions. Starting solutions of all antifungal agents were prepared in 100% DMSO. Stock concentrations were made at 50× the highest final assay concentration and serially diluted 2-fold, 16 times in a 96-well PCR plate (VWR 83007-374). Candida and Aspergillus suspensions from Sabouraud dextrose agar plate cultures were prepared in 0.85% saline at 0.5 McFarland standard (˜0.1 OD530 nm). Candida suspensions were diluted 1:500 in RPMI (MP Biomedicals, cat no. 1060124; buffered with MOPS and adjusted with NaOH to pH 7.0) to a concentration of ˜0.5-2.5×10^3 CFU/mL and Aspergillus suspensions were diluted 1:50 in RPMI to 0.4-5×10^4 CFU/mL final concentration. 98 μL of each cell suspension in RPMI were added to test wells in a 96-well assay plate (Costar cat. no. 3370). A Beckman Multimek 96 liquid handling robot was used to dispense 2 μL of each 50× stock compound into the plate containing 98 μL of each strain in RPMI (2% final solvent concentration). Plates were shaken then incubated at 35° C. for 24-48 h prior to reading. MIC values were read visually at 50% growth inhibition for echinocandins (24 h) and at 100% growth inhibition for amphotericin B (48 h). MEC values (24 h) were read with the aid of a microscope at the lowest echinocandin concentration where rounded/compact hyphal morphology was observed.

[3] = system: C. glabrata ATCC 90030; conditions: ATCC 90030, 24 h
Experimental: as §1

[4] = system: C. tropicalis ATCC 750; conditions: ATCC 750, 24 h
Experimental: as §1

[5] = system: C. krusei ATCC 14243; conditions: ATCC 14243, 24 h
Experimental: as §1

[6] = system: C. parapsilosis ATCC 22019; conditions: ATCC 22019, 24 h
Experimental: as §1

[7] = system: A. flavus ATCC MYA-3631; experiment: MEC assay (Example 32); conditions: MEC values (24 h), rounded/compact hyphal morphology
Experimental: as §1

[8] = system: A. fumigatus ATCC 13073; experiment: MEC assay (Example 32); conditions: MEC values (24 h), rounded/compact hyphal morphology
Experimental: as §1

[9] = system: A. fumigatus MYA-4609; experiment: MEC assay (Example 32); conditions: MEC values (24 h), rounded/compact hyphal morphology
Experimental: as §1

[10] = system: A. niger ATCC 16404; experiment: MEC assay (Example 32); conditions: MEC values (24 h), rounded/compact hyphal morphology
Experimental: as §1

[11] = system: A. fumigatus MYA-3626; experiment: MEC assay (Example 32); conditions: MEC values (24 h), rounded/compact hyphal morphology
Experimental: as §1

[12] = system: human neutrophils; experiment: Microfluidic Neutrophil Chemotaxis assay; conditions: for neutrophil (NF) migration counts (FIG. 1): 4 hour timepoint, relative to A. fumigatus alone
Description: Two layers of photoresist (SU8; […] The wafer with patterned photoresist was used as a mold to produce polydimethylsiloxane (PDMS) (Fisher Scientific) devices, which were then bonded to the base of glass-bottom 12- or 24-well plates, using an oxygen plasma machine (Nordson-March). De-identified, fresh human blood samples from healthy volunteers, aged 18 years and older, who were not receiving immunosuppressants, were purchased from Research Blood Components, LLC. Peripheral blood was drawn in tubes containing a final concentration of 5 mM EDTA (Vacutainer; Becton Dickinson) and processed within 2 h of blood collection. Using a sterile technique, neutrophils were isolated from whole blood using HetaSep followed by the EasySep Human Neutrophil Enrichment Kit (STEMCELL Technologies) following the manufacturer's protocol. The purity of neutrophils was assessed to be >98% using the Sysmex KX-21N Hematology Analyzer (Sysmex America, Inc.). White blood cells were isolated using Hetasep followed by a 5 min spin down and wash with 1×PBS. White blood cells were stained with Hoechst (32.4 μM) (Sigma) following the manufacture's protocols. The final aliquots of white blood cells were resuspended in RPMI plus 10% fetal bovine serum (FBS−stock 50 mL FBS/450 mL RPMI) (Sigma-Aldrich) at a concentration of 20,000 cells/2 μL and kept at 37° C. Cells were then immediately introduced into the microfluidic device for the chemotaxis and Aspergillus fumigatus killing assay. All experiments were repeated at least three times with neutrophils or white blood cells from three different healthy donors. Immediately after bonding to the well plate, donut-shaped devices were filled with Aspergillus fumigatus conidia at a concentration of 10^6 cells/mL with or without either Compound 1 or Compound 11 [10 nM], caspofungin acetate [10 nM] and/or a solution of the chemoattractant N-formyl-methionyl-leucyl-phenylalanine (fMLP) [100 nM](Sigma-Aldrich, St. Louis, Mo.). The device was then placed in a vacuum for 15 min. The solution filled all of the FCCs as the air was displaced. The devices were then vigorously washed five times with 1×PBS to remove any residual Aspergillus fumigatus conidia, drug or chemoattractant that was outside of the FCCs. The device was then submerged in 0.5 mL of cell media. Neutrophils or white blood cells (20,000 cells/2 μL) were then pipetted into the cell loading chamber (CLC) using a gel-loading pipette tip. […] Image analysis of cell migration counts and fungi growth was analyzed by hand using Image J software. Neutrophil counts per chamber were counted every 15 min for the first 2 hours of the experiment and then every hour for the remaining 16 hours. Percentage of conidia that converted to hyphal growth was measured by counting conidia loaded per chamber before neutrophils or WBCs were loaded into the chamber and counting numbers of these conidia that grew hyphae by 18 hours. Fungal growth velocity was calculated using Image J. The 16 chambers in each device (n=3) were analyzed for at least three different healthy donors.

[13] = system: Aspergillus fumigatus strain AF293; experiment: Microfluidic Aspergillus fumigatus Killing Assay with human neutrophils
Description: Microfluidic devices used to measure leukocyte migration in response to Aspergillus fumigatus with or without drug (Compound 1 or Compound 11), antifungal control (caspofungin acetate) and/or chemoattractant (fMLP) were manufactured using known microfabrication techniques. Two layers of photoresist (SU8; Microchem), the first one 10 μm thin (corresponding to the migration channels) and the second one 70 μm thick, corresponding to the focal chemotactic chambers (FCCs) were patterned on one silicon wafer sequentially using two photolithographic masks and processing cycles according to the instructions from the manufacturer. The wafer with patterned photoresist was used as a mold to produce polydimethylsiloxane (PDMS) (Fisher Scientific) devices, which were then bonded to the base of glass-bottom 12- or 24-well plates, using an oxygen plasma machine (Nordson-March).
Aspergillus fumigatus strain AF293 expressing either cytosolic red fluorescent protein (RFP) or green fluorescent protein (GFP) was grown on Sabouraud dextrose agar plates supplemented with 100 μg/mL ampicillin at 30° C. for 3-4 days. Conidia were harvested by gentle scraping followed by washing in ice-cold phosphate buffered saline (PBS) three times. Conidia were immediately used or stored at 4° C. for use within one week.
De-identified, fresh human blood samples from healthy volunteers, aged 18 years and older, who were not receiving immunosuppressants, were purchased from Research Blood Components, LLC. Peripheral blood was drawn in tubes containing a final concentration of 5 mM EDTA (Vacutainer; Becton Dickinson) and processed within 2 h of blood collection. Using a sterile technique, neutrophils were isolated from whole blood using HetaSep followed by the EasySep Human Neutrophil Enrichment Kit ([…] Technologies) following the manufacturer's protocol. The purity of neutrophils was assessed to be >98% using the Sysmex KX-21N Hematology Analyzer (Sysmex America, Inc.). White blood cells were isolated using Hetasep followed by a 5 min spin down and wash with 1×PBS. White blood cells were stained with Hoechst (32.4 μM) (Sigma) following the manufacture's protocols. The final aliquots of white blood cells were resuspended in RPMI plus 10% fetal bovine serum (FBS−stock 50 mL FBS/450 mL RPMI) (Sigma-Aldrich) at a concentration of 20,000 cells/2 μL and kept at 37° C. Cells were then immediately introduced into the microfluidic device for the chemotaxis and Aspergillus fumigatus killing assay. All experiments were repeated at least three times with neutrophils or white blood cells from three different healthy donors.
Immediately after bonding to the well plate, donut-shaped devices were filled with Aspergillus fumigatus conidia at a concentration of 10^6 cells/mL with or without either Compound 1 or Compound 11 [10 nM], caspofungin acetate [10 nM] and/or a solution of the chemoattractant N-formyl-methionyl-leucyl-phenylalanine (fMLP) [100 nM](Sigma-Aldrich, St. Louis, Mo.). The device was then placed in a vacuum for 15 min. The solution filled all of the FCCs as the air was displaced. The devices were then vigorously washed five times with 1×PBS to remove any residual Aspergillus fumigatus conidia, drug or chemoattractant that was outside of the FCCs. The device was then submerged in 0.5 mL of cell media. Neutrophils or white blood cells (20,000 cells/2 μL) were then pipetted into the cell loading chamber (CLC) using a gel-loading pipette tip. Neutrophil migration into the migration channel toward the FCC started immediately and was recorded using time-lapse imaging on a fully automated Nikon TiE microscope (10× magnification) with biochamber heated to 37° C. with 5% carbon dioxide gas. Image analysis of cell migration counts and fungi growth was analyzed by hand using Image J software.
Image analysis of cell migration counts and fungi growth was analyzed by hand using Image J software.

MIC [2]	MIC [3]	MIC [4]	MIC [5]	MIC [6]	Structure (SMILES)	% Neutrophil Migration ([1]; conc 0.001 μg/mL)	% Neutrophil Migration ([1]; conc 0.01 μg/mL)	% Neutrophil Migration ([1]; conc 0.1 μg/mL)	% Neutrophil Migration ([1]; conc 1 μg/mL)	% Neutrophil Migration ([1]; conc 10 μg/mL)	MEC [7]	MEC [8]	MEC [9]	MEC [10]	MEC [11]	neutrophil (NF) migration counts (FIG. 1) ([12]; 100 nM fMLP alone, no A. fumigatus)	neutrophil (NF) migration counts (FIG. 1) ([12]; in the presence of Aspergillus fumigatus, Compound 1, Compound 11, caspofungin acetate 10 nM, fMLP 100 nM)	timecourse of neutrophil (PMNs) migration in FCCs (FIG. 4) ([12]; with A. fumigatus, three healthy blood donors, t=0, 8, and 16 hours)	timecourse of A. fumigatus (Af) growth in FCCs (FIG. 4) ([13]; in presence of PMNs, three healthy blood donors, t=0, 8, and 16 hours)	percent hyphal growth compared to remaining conidia (FIG. 2) ([13]; with added neutrophils (NFs), Compound 1, Compound 11, caspofungin acetate 10 nM, fMLP 100 nM, hyphae by 18 hours)
2 µg/mL (≈ 1.31 µM)	8 µg/mL (≈ 5.23 µM)	2 µg/mL (≈ 1.31 µM)	32 µg/mL (≈ 20.9 µM)	32 µg/mL (≈ 20.9 µM)	CC[C@H](C)C[C@H](C)CCCCCCCCC(=O)N[C@H]1C[C@@H](O)[C@@H](OCCN)NC(=O)[C@@H]2[C@@H](O)CCN2C(=O)[C@H]([C@H](O)CCNC(=O)[C@H](Cc2ccccc2)NC(=O)[C@H](CC(C)C)NC(=O)[C@H](CC[S+](C)[O-])NC=O)NC(=O)[C@H]([C@H](O)[C@@H](O)c2ccc(O)cc2)NC(=O)[C@@H]2C[C@@H](O)CN2C(=O)[C@H]([C@@H](C)O)NC1=O (some centres unmarked) [Compound 30]	105.2%	133.6%	234.3%	48.2%	19.7%	0.5 µg/mL	0.25 µg/mL	0.5 µg/mL	0.5 µg/mL	1 µg/mL	–	–	–	–	–
–	–	–	–	–	CSCC[C@H](NC=O)C(=O)N[C@@H](CC(C)C)C(=O)N[C@@H](Cc1ccccc1)C(=O)O [fMLP, N-formyl-methionyl-leucyl-phenylalanine, reference compound]	–	–	–	–	–	–	–	–	–	–	increased NF migration	increased NF migration	migration of PMNs	inhibition of growth of Af	inhibition of Aspergillus fumigatus hyphal growth; also recorded: able to suppress hyphal growth

— patent US20160213742A1, “COMPOSITIONS AND METHODS FOR THE TREATMENT OF FUNGAL INFECTIONS” (priority 2013, published 2016)
